Results from ChEMBL document CHEMBL1909046, “DrugMatrix in vitro pharmacology data”.
*1 amine or outer side, *2 acyl side, *3 side chain or, on linkers, in order; H or OH if unused. Where a SMILES comes first, the peptide text is derived from it. Bridges are numbered along the chain shown (N, C = ends). Roman numbers before positions name the chains, in order. [ ]: non-standard residue; d: D form. Actinocin(1to9) = Cc1c2oc3c(C)ccc(C(=O)[*:2])c3nc-2c(C(=O)[*:1])c(N)c1=O; NMeV = CN[C@H](C(=O)O)C(C)C; Sar = CNCC(=O)O

Columns and labels:
[1] = molecular target: T1, Alpha-1A adrenergic receptor (Rattus norvegicus, UniProt P43140); test: DRUGMATRIX: Alpha-1A adrenergic receptor radioligand binding (ligand: prazosin); format: cell membranes, Wistar, Submaxillary gland, Membrane; details: Not Active = under 50% inhibition at 10 µM; for Ki: read-out: Ki
T1 sequence (P43140 whole entry): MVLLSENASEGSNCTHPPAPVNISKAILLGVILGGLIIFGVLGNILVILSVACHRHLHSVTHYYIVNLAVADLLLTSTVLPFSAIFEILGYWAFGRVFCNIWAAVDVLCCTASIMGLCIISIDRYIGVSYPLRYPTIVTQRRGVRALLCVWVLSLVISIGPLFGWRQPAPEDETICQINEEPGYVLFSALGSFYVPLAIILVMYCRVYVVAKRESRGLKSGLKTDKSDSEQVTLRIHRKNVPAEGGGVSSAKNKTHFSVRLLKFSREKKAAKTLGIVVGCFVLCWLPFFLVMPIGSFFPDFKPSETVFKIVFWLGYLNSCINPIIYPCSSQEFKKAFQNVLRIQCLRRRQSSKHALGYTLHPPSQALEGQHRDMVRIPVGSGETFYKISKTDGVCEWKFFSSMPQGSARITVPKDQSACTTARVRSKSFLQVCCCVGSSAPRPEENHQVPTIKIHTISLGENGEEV

[2] = DRUGMATRIX: Nicotinic Acetylcholine radioligand binding (ligand: [125I] Epibatidine); format: cell membranes, Membrane; details: imr-32; Not Active = under 50% inhibition at 10 µM
Progesterone receptor = molecular target: T2, Progesterone receptor (Bos taurus, UniProt Q690N0); test: DRUGMATRIX: Progesterone radioligand binding (ligand: [3H] R-5020); format: tissue-based, Uterus; details: Not Active = under 50% inhibition at 10 µM
T2 sequence (Q690N0 whole entry): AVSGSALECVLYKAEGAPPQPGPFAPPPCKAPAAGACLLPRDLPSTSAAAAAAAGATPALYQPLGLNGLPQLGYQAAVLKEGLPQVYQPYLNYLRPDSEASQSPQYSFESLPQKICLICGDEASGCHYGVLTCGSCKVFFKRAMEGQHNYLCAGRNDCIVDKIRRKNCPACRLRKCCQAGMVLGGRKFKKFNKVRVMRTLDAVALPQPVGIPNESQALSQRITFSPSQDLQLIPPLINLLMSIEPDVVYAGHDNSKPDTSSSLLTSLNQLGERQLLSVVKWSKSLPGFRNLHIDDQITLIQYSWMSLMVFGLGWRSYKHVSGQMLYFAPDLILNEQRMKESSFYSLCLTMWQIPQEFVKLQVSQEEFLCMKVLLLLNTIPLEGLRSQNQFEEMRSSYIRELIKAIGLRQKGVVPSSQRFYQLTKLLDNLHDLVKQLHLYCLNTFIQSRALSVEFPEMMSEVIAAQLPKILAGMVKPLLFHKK

Cathepsin G = molecular target: T3, Cathepsin G (Homo sapiens, UniProt P08311); format: tissue-based; details: neutrophil;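 further: inhibition of Cathepsin G enzyme activity, tested on an AMC-conjugated peptide substrate; in other assays of this panel Not Active means under 50% inhibition at 10 µM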
T3 sequence (P08311 whole entry): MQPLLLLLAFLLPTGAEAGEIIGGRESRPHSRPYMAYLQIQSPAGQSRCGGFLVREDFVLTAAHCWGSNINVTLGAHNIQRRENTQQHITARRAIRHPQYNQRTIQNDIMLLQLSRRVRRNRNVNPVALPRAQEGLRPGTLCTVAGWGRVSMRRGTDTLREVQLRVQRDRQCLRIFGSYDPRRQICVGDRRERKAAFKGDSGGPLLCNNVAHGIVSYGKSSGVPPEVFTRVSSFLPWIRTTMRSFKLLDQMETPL

[3] = molecular target: Matrix metalloproteinase-9 (Homo sapiens, UniProt P14780); test: biochemical; format: cell-based;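 further: inhibition of isolated MMP-9 enzyme activity toward a synthetic peptide substrate, from the DrugMatrix protease screening panel; in other assays of this panel Not Active means under 50% inhibition at 10 µM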
[4] = molecular target: Protein kinase C alpha type (Homo sapiens, UniProt P17252); format: cell-based; details: sf9;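 further: inhibition of PKCalpha kinase activity measured in an enzyme assay with histone as the phosphorylation substrate; in other assays of this panel Not Active means under 50% inhibition at 10 µM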

Sequence of Matrix metalloproteinase-9 (P14780 whole entry): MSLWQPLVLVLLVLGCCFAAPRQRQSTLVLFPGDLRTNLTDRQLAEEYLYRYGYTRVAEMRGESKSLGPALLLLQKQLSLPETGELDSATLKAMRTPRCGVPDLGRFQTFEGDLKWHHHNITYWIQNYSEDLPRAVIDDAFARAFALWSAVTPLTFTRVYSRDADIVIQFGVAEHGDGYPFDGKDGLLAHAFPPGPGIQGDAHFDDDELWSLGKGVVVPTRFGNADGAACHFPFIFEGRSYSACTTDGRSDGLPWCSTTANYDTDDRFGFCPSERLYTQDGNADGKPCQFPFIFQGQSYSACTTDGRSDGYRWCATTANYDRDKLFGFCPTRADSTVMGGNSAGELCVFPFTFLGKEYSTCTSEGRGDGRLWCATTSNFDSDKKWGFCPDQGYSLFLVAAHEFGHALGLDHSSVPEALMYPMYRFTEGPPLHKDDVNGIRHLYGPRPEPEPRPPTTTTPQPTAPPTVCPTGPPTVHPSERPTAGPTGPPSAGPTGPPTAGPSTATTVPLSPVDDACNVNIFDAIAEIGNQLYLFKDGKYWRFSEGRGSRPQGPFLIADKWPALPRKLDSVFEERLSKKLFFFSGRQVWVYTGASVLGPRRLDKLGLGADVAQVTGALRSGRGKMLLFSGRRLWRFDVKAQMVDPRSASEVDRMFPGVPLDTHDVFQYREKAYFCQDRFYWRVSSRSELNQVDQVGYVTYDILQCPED

| Structure (SMILES) | IC50 [1] | IC50 [2] | Ki [2] | IC50 (Progesterone receptor) | IC50 (Cathepsin G) | IC50 [3] | IC50 [4] | IC50 ([1]; read-out: IC50) [nM] | Ki [1] [nM] | IC50 (Progesterone receptor; read-out: IC50) [nM] | Ki (Progesterone receptor; read-out: Ki) [nM] |
| --- | --- | --- | --- | --- | --- | --- | --- | --- | --- | --- | --- |
| O=C(O)CCCc1ccc(N(CCCl)CCCl)cc1 [CHLORAMBUCIL] | Not Active | Not Active | Not Active | Not Active | Not Active | Not Active | Not Active | – | – | – | – |
| C[C@H](CCC(=O)O)[C@H]1CC[C@H]2[C@@H]3[C@H](O)C[C@@H]4C[C@H](O)CC[C@]4(C)[C@H]3C[C@H](O)[C@]12C [CHOLIC ACID] | Not Active | Not Active | Not Active | Not Active | Not Active | Not Active | Not Active | – | – | – | – |
| Cc1cc(C2CCCCC2)n(O)c(=O)c1 [CICLOPIROX] | Not Active | Not Active | Not Active | Not Active | Not Active | Not Active | Not Active | – | – | – | – |
| CC1=C2C(=CO[C@H](C)[C@H]2C)C(O)=C(C(=O)O)C1=O [CITRININ] | Not Active | Not Active | Not Active | Not Active | Not Active | Not Active | Not Active | – | – | – | – |
| CC(C)(C)NCC(O)c1cc(Cl)c(N)c(Cl)c1 (stereo unspecified) [CLENBUTEROL] | Not Active | Not Active | Not Active | Not Active | Not Active | Not Active | Not Active | – | – | – | – |
| CC(C)(Oc1ccc(Cl)cc1)C(=O)O [CLOFIBRIC ACID] | Not Active | Not Active | Not Active | Not Active | Not Active | Not Active | Not Active | – | – | – | – |
| Cc1cc(C(C#N)c2ccc(Cl)cc2)c(Cl)cc1NC(=O)c1cc(I)cc(I)c1O (stereo unspecified) [CLOSANTEL] | Not Active | Not Active | Not Active | Not Active | Not Active | Not Active | Not Active | – | – | – | – |
| Cc1onc(-c2ccccc2Cl)c1C(=O)N[C@@H]1C(=O)N2[C@@H]1SC(C)(C)[C@@H]2C(=O)O [CLOXACILLIN] | Not Active | Not Active | Not Active | Not Active | Not Active | Not Active | Not Active | – | – | – | – |
| CC1CC(OC(=O)C(O)c2ccccc2)CC(C)(C)C1 (stereo unspecified) [CYCLANDELATE] | Not Active | Not Active | Not Active | Not Active | Not Active | Not Active | Not Active | – | – | – | – |
| Cc1c2oc3c(C)ccc(C(=O)N[C@@H]4C(=O)N[C@H](C(C)C)C(=O)N5CCC[C@H]5C(=O)N(C)CC(=O)N(C)[C@@H](C(C)C)C(=O)O[C@@H]4C)c3nc-2c(C(=O)N[C@@H]2C(=O)N[C@H](C(C)C)C(=O)N3CCC[C@H]3C(=O)N(C)CC(=O)N(C)[C@@H](C(C)C)C(=O)O[C@@H]2C)c(N)c1=O [DACTINOMYCIN] (I: T[dV]P[Sar][NMeV] / II: T[dV]P[Sar][NMeV]; ester I:1-I:C, II:1-II:C; linker I:N-II:N via Actinocin(1to9)) | Not Active | Not Active | Not Active | Not Active | Not Active | Not Active | Not Active | – | – | – | – |
| Cc1c(O)c(=O)ccn1C [DEFERIPRONE] | Not Active | Not Active | Not Active | Not Active | Not Active | Not Active | Not Active | – | – | – | – |
| CNCCCN1c2ccccc2CCc2ccccc21 [DESIPRAMINE] | Not Active | Not Active | Not Active | Not Active | Not Active | Not Active | Not Active | – | – | – | – |
| O=c1oc2ccccc2c(O)c1Cc1c(O)c2ccccc2oc1=O [DICUMAROL] | Not Active | Not Active | Not Active | Not Active | Not Active | Not Active | Not Active | – | – | – | – |
| C[C@H]1O[C@@H](O[C@H]2[C@@H](O)C[C@H](O[C@H]3[C@@H](O)C[C@H](O[C@H]4CC[C@@]5(C)[C@H](CC[C@@H]6[C@@H]5C[C@@H](O)[C@]5(C)[C@@H](C7=CC(=O)OC7)CC[C@]65O)C4)O[C@@H]3C)O[C@@H]2C)C[C@H](O)[C@@H]1O [DIGOXIN] | Not Active | Not Active | Not Active | Not Active | Not Active | Not Active | Not Active | – | – | – | – |
| CC(C)[C@@]1(NC(=O)[C@@H]2C[C@@H]3c4cccc5[nH]cc(c45)C[C@H]3N(C)C2)O[C@@]2(O)[C@@H]3CCCN3C(=O)[C@H](Cc3ccccc3)N2C1=O.CS(=O)(=O)O [DIHYDROERGOCRISTINE MESYLATE] | – | Not Active | Not Active | Not Active | Not Active | Not Active | Not Active | 1.62 | 0.656 | – | – |
| CC(=O)O[C@@]12CO[C@@H]1C[C@H](O)[C@@]1(C)C(=O)[C@H](O)C3=C(C)[C@@H](OC(=O)[C@H](O)[C@@H](NC(=O)OC(C)(C)C)c4ccccc4)C[C@@](O)([C@@H](OC(=O)c4ccccc4)[C@H]21)C3(C)C.O.O.O [DOCETAXEL] | Not Active | Not Active | Not Active | Not Active | Not Active | Not Active | Not Active | – | – | – | – |
| COc1cc2nc(N3CCN(C(=O)C4COc5ccccc5O4)CC3)nc(N)c2cc1OC (stereo unspecified) [DOXAZOSIN] | – | Not Active | Not Active | Not Active | Not Active | Not Active | Not Active | 1.55 | 0.628 | – | – |
| C[C@H]1c2cccc(O)c2C(=O)C2=C(O)[C@]3(O)C(=O)C(C(N)=O)=C(O)[C@@H](N(C)C)[C@@H]3[C@@H](O)[C@@H]21.O [DOXYCYCLINE] | Not Active | Not Active | Not Active | Not Active | Not Active | Not Active | Not Active | – | – | – | – |
| O=C(CCCN1CC=C(n2c(=O)[nH]c3ccccc32)CC1)c1ccc(F)cc1 [DROPERIDOL] | – | Not Active | Not Active | Not Active | Not Active | Not Active | Not Active | 1.65 | 0.669 | – | – |
| CC(C)[C@H]1C(=O)N2CCC[C@H]2[C@]2(O)O[C@](NC(=O)[C@@H]3C=C4c5cccc6[nH]cc(c56)C[C@H]4N(C)C3)(C(C)C)C(=O)N12 [ERGOCORNINE] | – | Not Active | Not Active | Not Active | Not Active | Not Active | Not Active | 11 | 4.47 | – | – |
| C[C@]12CC[C@@H]3c4ccc(O)cc4CC[C@H]3[C@@H]1CCC2=O [ESTRONE] | Not Active | Not Active | Not Active | – | Not Active | Not Active | Not Active | – | – | 16100 | 2100 |
| OC(Cn1cncn1)(Cn1cncn1)c1ccc(F)cc1F [FLUCONAZOLE] | Not Active | Not Active | Not Active | Not Active | Not Active | Not Active | Not Active | – | – | – | – |
| CC(C)C(=O)Nc1ccc([N+](=O)[O-])c(C(F)(F)F)c1 [FLUTAMIDE] | Not Active | Not Active | Not Active | Not Active | Not Active | Not Active | Not Active | – | – | – | – |
